# Values quoted from earlier work, collected in patent US11213604B2, “Composition for dressing cutaneous lesions and manufacturing method thereof” (priority 2016, dated 2022).
# Tested on: cutaneous leishmanial ulcers
# Settings: protocols (1), (3), (2) of Stahl et al., BMC Infectious Diseases 2014
substance,measurement,value
sodium stilbogluconate,Median healing time,9 weeks
